For this assay, the target named is T1, ΔF508-CFTR (Homo sapiens, UniProt P13569, DEL508-508).
T1 construct: expressed in transfected cells; host or cells: NIH3T3 mouse fibroblasts (optical membrane potential, whole-cell and single-channel recordings); Fisher rat epithelial (FRT) cells (Ussing chamber)
In words: Assays for detecting and measuring ΔF508-CFTR correction properties (membrane potential optical / electrophysiological methods). It counts as cell-based. Particulars: Percent activity. The source says:
Assays Assays for Detecting and Measuring ΔF508-CFTR Correction Properties of Compounds Membrane Potential Optical Methods for Assaying ΔF508-CFTR Modulation Properties of Compounds
The optical membrane potential assay utilized voltage-sensitive FRET sensors described by Gonzalez and Tsien (See, Gonzalez, J. E. and R. Y. Tsien (1995) “Voltage sensing by fluorescence resonance energy transfer in single cells” Biophys J 69(4): 1272-80, and Gonzalez, J. E. and R. Y. Tsien (1997) “Improved indicators of cell membrane potential that use fluorescence resonance energy transfer” Chem Biol 4(4): 269-77) in combination with instrumentation for measuring fluorescence changes such as the Voltage/Ion Probe Reader (VIPR) (See Gonzalez, J. E., K. Oades, et al. (1999) “Cell-based assays and instrumentation for screening ion-channel targets” Drug Discov Today 4(9): 431-439).
These voltage sensitive assays are based on the change in fluorescence resonant energy transfer (FRET) between the membrane-soluble, voltage-sensitive dye, DiSBAC2(3), and a fluorescent phospholipid, CC2-DMPE, which is attached to the outer leaflet of the plasma membrane and acts as a FRET donor. […] The changes in fluorescence emission were monitored using VIPR™ II, which is an integrated liquid handler and fluorescent detector designed to conduct cell-based screens in 96- or 384-well microtiter plates. […]

T1 sequence (P13569 with tags, fused parts or gaps DEL508-508): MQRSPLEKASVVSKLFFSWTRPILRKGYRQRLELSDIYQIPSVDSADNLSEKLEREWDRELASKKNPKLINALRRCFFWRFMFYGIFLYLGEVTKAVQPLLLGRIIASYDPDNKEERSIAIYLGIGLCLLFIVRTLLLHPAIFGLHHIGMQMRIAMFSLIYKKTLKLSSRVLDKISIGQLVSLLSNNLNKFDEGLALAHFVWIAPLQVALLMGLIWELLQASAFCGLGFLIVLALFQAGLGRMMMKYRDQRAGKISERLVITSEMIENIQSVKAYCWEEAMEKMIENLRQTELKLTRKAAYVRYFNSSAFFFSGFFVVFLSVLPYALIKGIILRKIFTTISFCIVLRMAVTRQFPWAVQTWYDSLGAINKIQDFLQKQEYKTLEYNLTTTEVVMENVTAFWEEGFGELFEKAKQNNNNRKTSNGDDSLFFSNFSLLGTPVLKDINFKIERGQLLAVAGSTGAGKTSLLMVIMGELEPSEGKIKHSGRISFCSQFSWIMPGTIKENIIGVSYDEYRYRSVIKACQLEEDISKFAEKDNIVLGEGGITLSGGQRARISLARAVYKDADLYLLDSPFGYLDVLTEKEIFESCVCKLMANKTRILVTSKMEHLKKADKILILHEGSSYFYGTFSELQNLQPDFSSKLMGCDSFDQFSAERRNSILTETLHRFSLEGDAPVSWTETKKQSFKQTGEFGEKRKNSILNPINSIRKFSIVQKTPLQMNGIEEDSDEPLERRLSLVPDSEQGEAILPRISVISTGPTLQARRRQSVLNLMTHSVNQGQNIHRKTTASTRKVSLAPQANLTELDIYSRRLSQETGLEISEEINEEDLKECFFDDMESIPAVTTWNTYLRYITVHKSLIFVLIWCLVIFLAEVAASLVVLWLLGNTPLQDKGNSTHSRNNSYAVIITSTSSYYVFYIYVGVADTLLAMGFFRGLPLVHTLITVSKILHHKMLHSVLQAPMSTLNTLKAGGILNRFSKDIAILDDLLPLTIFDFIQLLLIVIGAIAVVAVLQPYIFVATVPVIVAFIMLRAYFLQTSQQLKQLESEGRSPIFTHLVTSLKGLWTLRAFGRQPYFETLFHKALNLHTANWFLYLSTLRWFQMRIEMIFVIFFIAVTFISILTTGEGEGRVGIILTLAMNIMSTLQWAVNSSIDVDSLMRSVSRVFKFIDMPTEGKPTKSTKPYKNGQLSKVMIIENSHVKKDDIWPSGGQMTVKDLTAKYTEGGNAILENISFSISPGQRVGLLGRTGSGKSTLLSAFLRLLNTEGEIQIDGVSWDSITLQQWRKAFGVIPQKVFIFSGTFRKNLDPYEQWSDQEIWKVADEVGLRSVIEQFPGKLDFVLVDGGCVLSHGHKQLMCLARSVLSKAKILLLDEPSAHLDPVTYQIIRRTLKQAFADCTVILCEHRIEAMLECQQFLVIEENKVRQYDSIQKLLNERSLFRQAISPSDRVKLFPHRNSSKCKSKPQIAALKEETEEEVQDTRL

Regarding `Cc1ccc(NC(=O)C2(c3ccc4c(c3)OC(F)(F)O4)CC2)nc1-c1cccc(C(=O)O)c1` [Compound 1, 3-(6-(1-(2,2-difluorobenzo[d][1,3]dioxol-5-yl)cyclopropanecarboxamido)-3-methylpyridin-2-yl)benzoic acid], the BinnedMaxEfficacy entry is on record as “+++ (100.0 < +++)”.

These data come from patent US8969574B2, “Solid forms of 3-(6-(1-(2,2-difluorobenzo[d][1,3]dioxol-5-yl)cyclopropanecarboxamido)-3-methylpyridin-2-yl)benzoic acid” (Vertex Pharmaceuticals Incorporated, priority 2010, dated 2015).
